pIC50: −log10 of the molar value.
Target: human FP receptor (Homo sapiens (Human), UniProt P43088)
Assay: In vitro test of inhibition of human FP receptor activity (PGF2α-induced calcium flux in FP-expressing CHEM1 cells)
Type: cell-based
Conditions: PGF2α-induced (3 nM) calcium flux, some as mean values from multiple independent determinations
Text: • CRTH2 chemoattractant receptor-homologous molecule expressed on T helper type 2 cells • DMEM Dulbecco's modified Eagle's medium • DMSO dimethyl sulfoxide • DP PGD2 receptor • EC50 half-maximum effective concentration • Em emission • EP PGE2 receptor • Ex excitation • from Company (source) • FCS fetal calf serum • FP PGF2α receptor • HEPES 2-[4-(2-hydroxyethyl)piperazin-1-yl]ethanesulfonic acid • IC50 half-maximum inhibitory concentration • IP PGI2 receptor • MES 2-(N-morpholino)ethanesulfonic acid • Pen/Strep penicillin/streptomycin • PGD2 prostaglandin D2 • PGE2 prostaglandin E2 • PGF2α prostaglandin F2α • PGI2 prostaglandin I2 • TC tissue culture • TP thromboxane A2 receptor • Tris tris(hydroxymethyl)aminomethane • v/v volume to volume ratio (of a solution) • w/w weight to weight ratio (of a solution) B-1. In Vitro Test of Inhibition of Human FP Receptor Activity
For the characterization of test substances in respect of FP antagonism, PGF2α-induced calcium flux in FP-expressing CHEM1 cells (Millipore, HTS093C) was used.
Prior to the measurement, the medium is replaced by 30 μl of Fluo-8 AM loading buffer [calcium-free Tyrode (130 mM NaCl, 5 mM KCl, 20 mM HEPES, 1 mM MgCl2, 4.8 mM NaHCO3, pH 7.4), 2 mM CaCl2, 1× SmartBlock (from CANDOR Bioscience GmbH), 4.5 mM Probenecid, 5 μM Fluo-8 AM, 0.016% Pluronic®, 0.04% Brilliant black] and incubated at 37° C./5% CO2 for 30 minutes. […] 10 μl of the prediluted substance solution are added to the Fluo-8-laden cells and incubated at 37° C./5% CO2 for 10 minutes. The FP receptor is activated by adding 20 μl of 3 nM (final concentration) PGF2α in calcium-free Tyrode/2 mM CaCl2/0.04% Brilliant black, and the calcium flux is determined by measuring the fluorescence at ex. 470 nm/[…].
Table 1 below lists the IC50 values from this assay for individual working examples of the invention (some as mean values from multiple independent individual determinations): […]

Chain of human FP receptor (P43088 whole entry): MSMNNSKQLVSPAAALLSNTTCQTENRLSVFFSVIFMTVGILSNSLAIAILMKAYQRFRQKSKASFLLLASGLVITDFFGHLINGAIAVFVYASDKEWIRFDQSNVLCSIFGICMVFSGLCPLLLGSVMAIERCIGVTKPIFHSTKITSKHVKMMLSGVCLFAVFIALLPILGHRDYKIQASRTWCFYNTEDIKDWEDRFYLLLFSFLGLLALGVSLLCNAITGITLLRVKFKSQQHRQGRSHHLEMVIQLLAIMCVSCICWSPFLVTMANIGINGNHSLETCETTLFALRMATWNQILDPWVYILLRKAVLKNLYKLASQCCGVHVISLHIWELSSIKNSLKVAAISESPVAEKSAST

Row | pIC50 | Compound
1 | 6.36 | Cc1c(-c2ccccc2)nc2ccc(Br)cc2c1C(=O)NC12CCC(C(=O)O)(CC1)C(O)C2 (racemic) [Example 59, 4-{[(6-Bromo-3-methyl-2-phenylquinolin-4-yl)carbonyl]amino}-2-hydroxybicyclo[2.2.2]octane-1-carboxylic acid (racemate)]
2 | 6.59 | Cc1c(-c2ccccc2)nc2ccc(Cl)cc2c1C(=O)NC12CCC(C(=O)O)(CC1)CC2 [Example 2, 4-{[(6-Chloro-3-methyl-2-phenylquinolin-4-yl)carbonyl]amino}bicyclo[2.2.2]octane-1-carboxylic acid]
3 | 6.85 | Cc1c(-c2ccccc2)nc2cc(Cl)c(Cl)cc2c1C(=O)NC12CCC(C(=O)O)(CC1)CC2 [Example 3, 4-{[(6,7-Dichloro-3-methyl-2-phenylquinolin-4-yl)carbonyl]amino}bicyclo[2.2.2]octane-1-carboxylic acid]
4 | 6.95 | Cc1c(-c2cccs2)nc2ccc(Br)cc2c1C(=O)NC12CCC(C(=O)O)(CC1)CC2 [Example 5, 4-({[6-Bromo-3-methyl-2-(2-thienyl)quinolin-4-yl]carbonyl}amino)bicyclo[2.2.2]octane-1-carboxylic acid]
5 | 6.62 | Cc1c(-c2ccccc2F)nc2ccc(Br)cc2c1C(=O)NC12CCC(C(=O)O)(CC1)CC2 [Example 6, 4-({[6-Bromo-2-(2-fluorophenyl)-3-methylquinolin-4-yl]carbonyl}amino)bicyclo[2.2.2]octane-1-carboxylic acid]
6 | 6.74 | Cc1c(-c2cccc(F)c2)nc2ccc(Br)cc2c1C(=O)NC12CCC(C(=O)O)(CC1)CC2 [Example 7, 4-({[6-Bromo-2-(3-fluorophenyl)-3-methylquinolin-4-yl]carbonyl}amino)bicyclo[2.2.2]octane-1-carboxylic acid]
7 | 6.74 | Cc1c(-c2ccc(F)cc2)nc2ccc(Br)cc2c1C(=O)NC12CCC(C(=O)O)(CC1)CC2 [Example 8, 4-({[6-Bromo-2-(4-fluorophenyl)-3-methylquinolin-4-yl]carbonyl}amino)bicyclo[2.2.2]octane-1-carboxylic acid]
8 | 6.41 | Cc1c(-c2cc(F)cc(F)c2)nc2ccc(Br)cc2c1C(=O)NC12CCC(C(=O)O)(CC1)CC2 [Example 9, 4-({[6-Bromo-2-(3,5-difluorophenyl)-3-methylquinolin-4-yl]carbonyl}amino)bicyclo[2.2.2]octane-1-carboxylic acid]
9 | 6.89 | Cc1c(-c2ccccc2Cl)nc2ccc(Br)cc2c1C(=O)NC12CCC(C(=O)O)(CC1)CC2 [Example 10, 4-({[6-Bromo-2-(2-chlorophenyl)-3-methylquinolin-4-yl]carbonyl}amino)bicyclo[2.2.2]octane-1-carboxylic acid]
10 | 6.89 | Cc1c(-c2cccc(Cl)c2)nc2ccc(Br)cc2c1C(=O)NC12CCC(C(=O)O)(CC1)CC2 [Example 11, 4-({[6-Bromo-2-(3-chlorophenyl)-3-methylquinolin-4-yl]carbonyl}amino)bicyclo[2.2.2]octane-1-carboxylic acid]
11 | 6.86 | O=C(NC12CCC(C(=O)O)(CC1)CC2)c1c(F)c(-c2ccccc2)nc2ccc(Br)cc12 [Example 12, 4-{[(6-Bromo-3-fluoro-2-phenylquinolin-4-yl)carbonyl]amino}bicyclo[2.2.2]octane-1-carboxylic acid]
12 | 6.82 | COc1c(-c2ccccc2)nc2ccc(Br)cc2c1C(=O)NC12CCC(C(=O)O)(CC1)CC2 [Example 13, 4-{[(6-Bromo-3-methoxy-2-phenylquinolin-4-yl)carbonyl]amino}bicyclo [2.2.2]octane-1-carboxylic acid]
13 | 7.48 | Cc1c(-c2ccccc2)nc2ccc(I)cc2c1C(=O)NC12CCC(C(=O)O)(CC1)CC2 [Example 14, 4-{[(6-Iodo-3-methyl-2-phenylquinolin-4-yl)carbonyl]amino}bicyclo[2.2.2]octane-1-carboxylic acid]
14 | 6.49 | Cc1c(-c2ccccc2)nc2ccc(C3CC3)cc2c1C(=O)NC12CCC(C(=O)O)(CC1)CC2 [Example 15, 4-{[(6-Cyclopropyl-3-methyl-2-phenylquinolin-4-yl)carbonyl]amino}bicyclo[2.2.2]octane-1-carboxylic acid]
15 | 6.23 | Cc1c(-c2ccccc2)nc2ccc(C3CCC3)cc2c1C(=O)NC12CCC(C(=O)O)(CC1)CC2 [Example 16, 4-{[(6-Cyclobutyl-3-methyl-2-phenylquinolin-4-yl)carbonyl]amino}bicyclo [2.2.2]octane-1-carboxylic acid]
16 | 6.27 | Cc1c(-c2ccccc2)nc2ccc(C(F)F)cc2c1C(=O)NC12CCC(C(=O)O)(CC1)CC2 [Example 18, 4-({[6-(Difluoromethyl)-3-methyl-2-phenylquinolin-4-yl]carbonyl}amino)bicyclo[2.2.2]octane-1-carboxylic acid]
17 | 6.04 | Cc1c(-c2ccccc2)nc2ccc(OC(F)(F)F)cc2c1C(=O)NC12CCC(C(=O)O)(CC1)CC2 [Example 19, 4-({[3-Methyl-2-phenyl-6-(trifluoromethoxy)quinolin-4-yl]carbonyl}amino)bicyclo[2.2.2]octane-1-carboxylic acid]
18 | 6.28 | Cc1c(-c2ccccc2)nc2ccc(SC(F)(F)F)cc2c1C(=O)NC12CCC(C(=O)O)(CC1)CC2 [Example 20, 4-[({3-Methyl-2-phenyl-6-[(trifluoromethyl)sulfanyl]quinolin-4-yl}carbonyl)amino]bicyclo[2.2.2]octane-1-carboxylic acid]
19 | 6.67 | Cc1c(-c2ccccc2)nc2c(C)cc(Br)cc2c1C(=O)NC12CCC(C(=O)O)(CC1)CC2 [Example 21, 4-{[(6-Bromo-3,8-dimethyl-2-phenylquinolin-4-yl)carbonyl]amino}bicyclo[2.2.2]octane-1-carboxylic acid]
20 | 6.17 | Cc1c(-c2ccccc2)nc2c(Cl)cc(Cl)cc2c1C(=O)NC12CCC(C(=O)O)(CC1)CC2 [Example 22, 4-{[(6,8-Dichloro-3-methyl-2-phenylquinolin-4-yl)carbonyl]amino}bicyclo[2.2.2]octane-1-carboxylic acid]
21 | 6.51 | Cc1cc2nc(-c3ccccc3)c(C)c(C(=O)NC34CCC(C(=O)O)(CC3)CC4)c2cc1C [Example 23]
22 | 6.89 | Cc1ccccc1-c1nc2ccc(Br)cc2c(C(=O)NC23CCC(C(=O)O)(CC2)CC3)c1C [Example 24, 4-({[6-Bromo-3-methyl-2-(2-methylphenyl)quinolin-4-yl]carbonyl}amino)bicyclo[2.2.2]octane-1-carboxylic acid]
23 | 6.31 | Cc1c(-c2c(F)cccc2F)nc2ccc(Br)cc2c1C(=O)NC12CCC(C(=O)O)(CC1)CC2 [Example 25, 4-({[6-Bromo-2-(2,6-difluorophenyl)-3-methylquinolin-4-yl]carbonyl}amino)bicyclo[2.2.2]octane-1-carboxylic acid]
24 | 6.94 | COc1cccc(-c2nc3ccc(Br)cc3c(C(=O)NC34CCC(C(=O)O)(CC3)CC4)c2C)c1 [Example 26, 4-({[6-Bromo-2-(3-methoxyphenyl)-3-methylquinolin-4-yl]carbonyl}amino)bicyclo[2.2.2]octane-1-carboxylic acid]

Row | Compound | pIC50
25 | Cc1c(-c2ccccc2)nc2ccc([Si](C)(C)C)cc2c1C(=O)NC12CCC(C(=O)O)(CC1)CC2 [Example 17, 4-({[3-Methyl-2-phenyl-6-(trimethylsilyl)quinolin-4-yl]carbonyl}amino)bicyclo[2.2.2]octane-1-carboxylic acid] | 6.67

Source: patent publication US10117864B2, “Substituted N-bicyclo-2-aryl-quinolin-4-carboxamides and use thereof” (BAYER PHARMA AKTIENGESELLSCHAFT, priority 2015, dated 2018)
